Experiment [1] has as its system KRAS G13D mutant human colorectal adenocarcinoma epithelial cells DLD-1. Nature of the experiment: 3D cell proliferation inhibition assay, DLD-1. The format is cell-based. The conditions noted are these: 7 days, CTG. How it is done:
(§1) Inhibition of 3D cell proliferation by the compounds was investigated on KRAS G12C mutant human non-small cell lung cancer cells NCI-H358 (ATCC or Stem Cell Bank, Chinese Academy of Sciences), KRAS G12D mutant human metastatic pancreatic adenocarcinoma cells AsPC-1 (ATCC), KRAS G12V mutant human lung adenocarcinoma cells NCI-H441 (ATCC), and KRAS G13D mutant human colorectal adenocarcinoma epithelial cells DLD-1 (ATCC). The specific procedures were as follows:
(§2) 200 nL of compound solution diluted in a gradient was added to corresponding microwells of a 384-well low-adsorption microwell plate (Corning, 3657) using an Echo sonic pipetting system (Labcyte, Echo 550), so that the final concentration of the test compound in the reaction system was in a range of 20000 nM-0.008 nM. Then 40 μL of cells at a certain density were added to the corresponding microplate. In addition to test wells for the test compounds, both a DMSO control well and a medium control well were set, with the DMSO control well containing DMSO and cells and the medium well containing only medium. After sample loading, the plate cover was applied, and the 384-well low-adsorption microplate was incubated in an incubator at 37° C. with 5% carbon dioxide for 7 days. After 7 days, the microplate was taken out, and 40 μL of CTG reagent (Promega, G9683) was added to each well. The plate was incubated at room temperature for 30 min and read on a microplate reader EnVision using the chemiluminescence program. The inhibition rates of the compounds at each concentration were calculated by the formula for the percentage inhibition of cell proliferation: inhibition rate %=(mean value of DMSO control group−single concentration reading value of compound)/(mean value of DMSO control group−mean value of medium control group)×100, and then nonlinear curve fitting was performed by GraphPad Prism 8 in the logarithmic concentration-inhibition rate to obtain the IC50 values of the compounds.

For experiment [2], the system named is KRAS G12C mutant human non-small cell lung cancer cells NCI-H358. Nature of the experiment: 3D cell proliferation inhibition assay, NCI-H358. The format is cell-based. The conditions noted are these: 7 days, CTG. How it is done: as §1, §2
For experiment [3], the system named is KRAS G12V mutant human lung adenocarcinoma cells NCI-H441. Briefly: 3D cell proliferation inhibition assay, NCI-H441. The format is cell-based. The note with it: 7 days, CTG. How it is done: as §1, §2
The test system of experiment [4] is KRAS G12D mutant human metastatic pancreatic adenocarcinoma cells AsPC-1. Briefly: 3D cell proliferation inhibition assay, AsPC-1. Type of experiment: cell-based. The conditions noted are these: 7 days, CTG. How it is done: as §1, §2
A further experiment concerns the target T1, KRAS-G12C/SOS1 (Homo sapiens, UniProt Q07889).
T1 construct: purchased Cisbio 63ADKOOOCB16PEG
T1 sequence (Q07889 1-1333): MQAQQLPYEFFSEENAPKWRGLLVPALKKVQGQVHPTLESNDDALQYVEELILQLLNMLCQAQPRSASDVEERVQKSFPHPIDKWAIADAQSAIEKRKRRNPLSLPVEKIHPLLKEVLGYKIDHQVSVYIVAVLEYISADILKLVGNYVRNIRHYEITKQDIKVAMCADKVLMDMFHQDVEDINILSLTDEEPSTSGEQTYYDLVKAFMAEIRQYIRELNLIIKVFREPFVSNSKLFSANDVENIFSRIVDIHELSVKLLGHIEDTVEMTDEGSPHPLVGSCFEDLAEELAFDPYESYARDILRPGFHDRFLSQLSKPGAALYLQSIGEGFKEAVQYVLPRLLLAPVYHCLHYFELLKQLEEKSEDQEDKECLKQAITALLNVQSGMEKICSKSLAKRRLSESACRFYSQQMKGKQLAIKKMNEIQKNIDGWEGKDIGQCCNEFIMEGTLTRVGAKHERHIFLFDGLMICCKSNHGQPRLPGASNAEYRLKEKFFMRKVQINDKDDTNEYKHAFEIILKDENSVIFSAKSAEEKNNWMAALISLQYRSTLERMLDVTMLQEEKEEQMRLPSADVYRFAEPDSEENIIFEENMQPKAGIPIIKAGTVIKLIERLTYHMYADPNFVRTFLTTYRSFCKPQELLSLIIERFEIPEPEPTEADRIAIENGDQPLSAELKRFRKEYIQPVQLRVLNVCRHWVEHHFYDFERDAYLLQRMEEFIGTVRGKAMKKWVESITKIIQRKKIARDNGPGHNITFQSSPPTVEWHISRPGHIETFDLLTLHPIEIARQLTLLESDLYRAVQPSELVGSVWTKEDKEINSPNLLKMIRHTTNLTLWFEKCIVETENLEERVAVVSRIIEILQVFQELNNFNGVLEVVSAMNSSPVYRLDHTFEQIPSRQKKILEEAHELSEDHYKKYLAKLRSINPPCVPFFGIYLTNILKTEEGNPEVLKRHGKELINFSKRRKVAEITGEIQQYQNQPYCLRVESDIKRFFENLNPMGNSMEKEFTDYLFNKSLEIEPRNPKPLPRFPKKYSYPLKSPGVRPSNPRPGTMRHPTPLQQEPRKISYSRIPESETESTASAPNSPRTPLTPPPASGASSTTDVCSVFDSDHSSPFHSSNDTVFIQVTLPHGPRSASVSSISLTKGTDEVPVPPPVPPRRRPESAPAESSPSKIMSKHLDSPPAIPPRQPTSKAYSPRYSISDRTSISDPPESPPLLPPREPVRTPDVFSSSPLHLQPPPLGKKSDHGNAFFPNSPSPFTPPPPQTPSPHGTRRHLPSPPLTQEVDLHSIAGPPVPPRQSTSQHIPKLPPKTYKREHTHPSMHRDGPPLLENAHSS
Briefly: KRAS-G12C/SOS1 binding assay (HTRF). The conditions noted are these: inhibition of KRAS-G12C/SOS1 binding. The essentials:
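HTRF competition assay with Tag1-SOS1 and Tag2-KRAS-G12C (10 μM GTP). Compounds at 10000 nM-0.04 nM final (0.5% DMSO), incubated 15 min at 25° C, then anti-tag Tb3+/XL665 antibodies added for 3 h on ice. The 665/620 nm ratio was compared with control and IC50 derived by nonlinear fit.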

The next experiment deals with T2, SOS1 protein (Homo sapiens, UniProt Q07889).
T2 sequence (Q07889 1-1333): T1 sequence (Q07889 1-1333)
Nature of the experiment: SOS1 degradation assay (Western blot), NCI-H358 cells. Type of experiment: cell-based. Also noted: The degradation of SOS1 by the compounds was investigated on KRAS G12C mutant human non-small cell lung cancer cells NCI-H358; host or cells: NCI-H358 (human cancer cell lines). The note with it: SOS1 degradation, NCI-H358 cells, 24 h, Western blot; for DC50: read-out: NCI-H358 (G12C) DC50; for Dmax: read-out: NCI-H358 (G12C) Dmax. The essentials: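 SOS1 degradation was assessed by densitometry of Western blots, relative to untreated controls, after 24 h compound exposure (0.03–3000 nM final, 37 °C, 5% CO2) of cells seeded at 5×10^5/well. Log concentration–response fitting gave DC50 and Dmax.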

Regarding `COc1cc2nc(C)nc(N[C@H](C)c3cc(N)cc(C(F)(F)F)c3)c2cc1C1CCC(C(=O)N2CCN(CC3CCC4(CC3)CCN(C(=O)c3ccc(OC)c(N5CCC(=O)NC5=O)c3)CC4)CC2)CC1` (stereo partly drawn) [Example 20, 1-(5-(9-((4-((1R,4R)-4-(4-(((R)-1-(3-amino-5-(trifluoromethyl)phenyl)ethyl)amino)-7-methoxy-2-methylquinazolin-6-yl)cyclohexane-1-carbonyl)piperazin-1-yl)methyl)-3-azaspiro[5.5]undecane-3-carbonyl)-2-methoxyphenyl)dihydropyrimidine-2,4(1H,3H)-dione], the IC50 in experiment [1] is 15 to 30 nM; in experiment [2], no more than 15 nM; in experiment [3] it was no more than 15 nM; in experiment [4], 50 to 100 nM.

Turning to `COc1ccc(C(=O)N2CCC3(CCC(CN4CCN(C(=O)[C@H]5CC[C@H](c6cc7c(N[C@H](C)c8cc(-c9c(Cl)cccc9CN(C)C)cs8)nc(C)nc7cc6OC)CC5)CC4)CC3)CC2)cc1N1CCC(=O)NC1=O` [Example 59, 1-(5-(9-((4-((1R,4R)-4-(4-(((R)-1-(4-(2-chloro-6-((dimethylamino)methyl)phenyl)thien-2-yl)ethyl)amino)-7-methoxy-2-methylquinazolin-6-yl)cyclohexane-1-carbonyl)piperazin-1-yl)methyl)-3-azaspiro[5.5]undecane-3-carbonyl)-2-methoxyphenyl)dihydropyrimidine-2,4(1H,3H)-dione], the IC50 on KRAS-G12C/SOS1 was no more than 15 nM. Besides, on SOS1 protein, the DC50 was less than 50 nM and the Dmax lay within 80 to 100%.

In the case of `[2H]C([2H])(OCC1CCN(C(=O)[C@H]2CC[C@H](c3cc4c(N[C@H](C)c5cc(N)cc(C(F)(F)F)c5)nc(C)nc4cc3OC)CC2)CC1)C1CCN(C(=O)c2ccc(Cl)c(N3CCC(=O)NC3=O)c2)CC1` [Example 75, 1-(5-(4-(((1-((1R,4R)-4-(4-(((R)-1-(3-amino-5-(trifluoromethyl)phenyl)ethyl)amino)-7-methoxy-2-methylquinazolin-6-yl)cyclohexane-1-carbonyl)piperidin-4-yl)methoxy)methyl-d2)piperidine-1-carbonyl)-2-chlorophenyl)dihydropyrimidine-2,4(1H,3H)-dione], the IC50 on KRAS-G12C/SOS1 is no more than 15 nM. On SOS1 protein, the DC50 was less than 50 nM and the Dmax is 50 to 80%.

On KRAS-G12C/SOS1, `CNCc1cccc(Cl)c1-c1csc([C@@H](C)Nc2nc(C)nc3cc(OC)c([C@H]4CC[C@H](C(=O)N5CCC(CCOCC6CCN(C(=O)c7ccc(Cl)c(N8CCC(=O)NC8=O)c7)CC6)CC5)CC4)cc23)c1` [Example 69, 1-(2-chloro-5-(4-((2-(1-((1R,4R)-4-(4-(((R)-1-(4-(2-chloro-6-((methylamino)methyl)phenyl)thien-2-yl)ethyl)amino)-7-methoxy-2-methylquinazolin-6-yl)cyclohexane-1-carbonyl)piperidin-4-yl)ethoxy)methyl)piperidine-1-carbonyl)phenyl)dihydropyrimidine-2,4(1H,3H)-dione] had an IC50 of no more than 15 nM. In addition, on SOS1 protein, the 50% degradation concentration (DC50) was less than 50 nM and the Dmax was 50 to 80%.

Consider `COc1cc2nc(C)nc(N[C@H](C)c3cc(-c4c(Cl)cccc4CN(C)C)cs3)c2cc1[C@H]1CC[C@H](C(=O)N2CCC(COCC3CCN(C(=O)c4ccc(Cl)c(N5CCC(=O)NC5=O)c4)CC3)CC2)CC1` [Example 65, 1-(2-chloro-5-(4-(((1-((1R,4R)-4-(4-(((R)-1-(4-(2-chloro-6-((dimethylamino)methyl)phenyl)thien-2-yl)ethyl)amino)-7-methoxy-2-methylquinazolin-6-yl)cyclohexane-1-carbonyl)piperidin-4-yl)methoxy)methyl)piperidine-1-carbonyl)phenyl)dihydropyrimidine-2,4(1H,3H)-dione], for which, at KRAS-G12C/SOS1, the IC50 is no more than 15 nM. For the same compound, at SOS1 protein, the half-maximal degradation concentration (DC50) lay in the range of 1000 to 10000 nM and the Dmax was less than 30%.

Regarding `COc1cc2nc(C)nc(N[C@H](C)c3cc(N)cc(C(F)(F)F)c3)c2cc1C1=CCC(C(=O)N2CCN(CCOCC3CCN(C(=O)c4ccc(Cl)c(N5CCC(=O)NC5=O)c4)CC3)CC2)CC1` (stereo partly drawn) [Example 53, 1-(5-(4-((2-(4-(4-(4-(((R)-1-(3-amino-5-(trifluoromethyl)phenyl)ethyl)amino)-7-methoxy-2-methylquinazolin-6-yl)cyclohex-3-ene-1-carbonyl)piperazin-1-yl)ethoxy)methyl)piperidine-1-carbonyl)-2-chlorophenyl)dihydropyrimidine-2,4(1H,3H)-dione], at KRAS-G12C/SOS1, the IC50 is no more than 15 nM. In addition, on SOS1 protein, the 50% degradation concentration (DC50) was less than 50 nM and the Dmax lay in the range of 50 to 80%.

`COc1cc2nc(C)nc(N[C@H](C)c3cc(-c4c(Cl)cccc4CN(C)C)cs3)c2cc1[C@H]1CC[C@H](C(=O)N2CCN(CCOCC3CCN(C(=O)c4ccc(Cl)c(N5CCC(=O)NC5=O)c4)CC3)CC2)CC1` [Example 67, 1-(2-chloro-5-(4-((2-(4-((1R,4R)-4-(4-(((R)-1-(4-(2-chloro-6-((dimethylamino)methyl)phenyl)thien-2-yl)ethyl)amino)-7-methoxy-2-methylquinazolin-6-yl)cyclohexane-1-carbonyl)piperazin-1-yl)ethoxy)methyl)piperidine-1-carbonyl)phenyl)dihydropyrimidine-2,4(1H,3H)-dione] showed a 50% inhibitory concentration (IC50) on KRAS-G12C/SOS1 of no more than 15 nM. On SOS1 protein, the DC50 is less than 50 nM and the Dmax lay within 80 to 100%.

For the origin of these results see patent US20240261417A1, “SOS1 DEGRADING AGENT AND PREPARATION METHOD THEREFOR AND APPLICATION THEREOF” (SHANGHAI LEADINGTAC PHARMACEUTICAL CO. LTD., priority 2021, published 2024).
